Values joined by “and” are separate entries in the source; they are usually repeats but may differ in a detail not shown here. Equal entries are not always repeated. Inconclusive results and toxic doses are left out.

This experiment relates to P388 leukemia ip, CD2F1 mice, survival T/C. The experiment is described as follows: NCI In Vivo Anticancer Drug Screen. Data for tumor model P388 Leukemia (intraperitoneal) in CD2F1 (CDF1) mice. The following applies: endpoint: median survival time, higher = longer survival. A digest of the protocol:
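Mice carrying the transplanted tumor received test compound or vehicle. Survival was recorded in each group, and the value is the treated-group measurement divided by that of the vehicle-treated control group.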

The mark [1] stands for this setting: dose: 6.25 mg/kg/injection, schedule: Q01DX009 (ip), vehicle: saline with Tween-80.
[2] abbreviates: dose: 12.5 mg/kg/injection, schedule: Q01DX009 (ip), vehicle: saline with Tween-80.
Where [3] appears, read: dose: 25.0 mg/kg/injection, schedule: Q01DX009 (ip), vehicle: saline with Tween-80.
[4] abbreviates: dose: 50.0 mg/kg/injection, schedule: Q01DX009 (ip), vehicle: saline with Tween-80.
The mark [5] stands for this setting: dose: 100.0 mg/kg/injection, schedule: Q01DX009 (ip), vehicle: saline with Tween-80.
[6] abbreviates: dose: 200.0 mg/kg/injection, schedule: Q01DX009 (ip), vehicle: saline with Tween-80.
Setting [7] is: dose: 50.0 mg/kg/injection, schedule: Q01DX009 (ip), vehicle: saline.
[8] abbreviates: dose: 100.0 mg/kg/injection, schedule: Q01DX009 (ip), vehicle: saline.

On to `COc1cc2c(cc1OC)-c1c(C)c3ccc(OC)c(NCCN)c3c[n+]1CC2`, for which the T/C reads like this: (dose: 6.25 mg/kg/injection, schedule: Q04DX003 (ip), vehicle: water) 110 % of control; (dose: 12.5 mg/kg/injection, schedule: Q04DX003 (ip), vehicle: water) 91 % of control; (dose: 25.0 mg/kg/injection, schedule: Q04DX003 (ip), vehicle: water) 101 % of control.
As for `[N-]=[N+]=NC1(c2ccccc2)C(=O)c2ccccc2C1=O`, the T/C runs as follows: (dose: 100.0 mg/kg/injection, schedule: Q04DX003 (ip), vehicle: saline with Tween-80) 94 % of control; (dose: 200.0 mg/kg/injection, schedule: Q04DX003 (ip), vehicle: saline with Tween-80) 105 % of control.
On to `O=[N+]([O-])c1ccc(C=C2C(Cl)=C(Cl)C(Cl)=C2Cl)cc1`, for which the T/C by setting is: under setting [1], 91 % of control; under setting [2], 100 % of control.
In the case of `COc1ccc2c(c1)N(S(=O)(=O)c1ccc(C)cc1)CC1=C2CCP1(C)=O` (stereo unspecified), the T/C reads like this: (dose: 100.0 mg/kg/injection, schedule: Q01DX001 (ip), vehicle: saline) 111 % of control; (dose: 200.0 mg/kg/injection, schedule: Q01DX001 (ip), vehicle: saline) 111 % of control; (dose: 400.0 mg/kg/injection, schedule: Q01DX001 (ip), vehicle: saline) 112 % of control.
For the compound `CC(c1ccccc1)N1C(=O)CSC1=S` (stereo unspecified), the T/C under setting [3] is 100 % of control, the T/C under setting [4] is 100 % of control, the T/C under setting [5] was 100 % of control and the T/C under setting [6] is 100 % of control.
Turning to `CN(CC(=O)O)C(=S)c1ccccc1`, the T/C reads like this: (dose: 100.0 mg/kg/injection, schedule: Q01DX001 (ip), vehicle: saline with Tween-80) 95 % of control; (dose: 200.0 mg/kg/injection, schedule: Q01DX001 (ip), vehicle: saline with Tween-80) 95 % of control; (dose: 400.0 mg/kg/injection, schedule: Q01DX001 (ip), vehicle: saline with Tween-80) 95 % of control.
For `CCCCCCC1(/C=C\c2ccc(Cl)cc2Cl)OCCO1`, the T/C (dose: 50.0 mg/kg/injection, schedule: Q01DX009 (ip), vehicle: Klucel (hydroxypropylcellulose) (HPC)) was 103 % of control; the T/C (dose: 100.0 mg/kg/injection, schedule: Q01DX009 (ip), vehicle: Klucel (hydroxypropylcellulose) (HPC)) was 110 % of control; the T/C (dose: 200.0 mg/kg/injection, schedule: Q01DX009 (ip), vehicle: Klucel (hydroxypropylcellulose) (HPC)) was 101 % of control.
In the case of `CCCCCCOCCOCCCN1C(=O)C2C3C=CC(C3)C2(Cl)C1=O` (stereo unspecified), the T/C was 102 % of control (dose: 50.0 mg/kg/injection, schedule: Q01DX005 (ip), vehicle: distilled water + Tween-80 + alcohol); 105 % of control (dose: 100.0 mg/kg/injection, schedule: Q01DX005 (ip), vehicle: distilled water + Tween-80 + alcohol); 100 % of control (dose: 200.0 mg/kg/injection, schedule: Q01DX005 (ip), vehicle: distilled water + Tween-80 + alcohol).
Turning to `Cc1c(-c2ccc(-c3ccccc3F)cc2)nc2ccc(F)cc2c1C(=O)O`, the T/C is, setting by setting: (dose: 5.62 mg/kg/injection, schedule: Q01DX005 (ip), vehicle: water) 120 % of control; (dose: 11.25 mg/kg/injection, schedule: Q01DX005 (ip), vehicle: water) 121 % of control; (dose: 45.0 mg/kg/injection, schedule: Q01DX005 (ip), vehicle: water) 157 % of control; (dose: 90.0 mg/kg/injection, schedule: Q01DX005 (ip), vehicle: water) 158 % of control.
Take `COC(=O)C1=CO[C@@H](OC2OC(CO)C(O)C(O)C2O)[C@@H]2[C@@H](CO)[C@@H](O)[C@@H](OC(=O)/C=C/c3ccc(O)c(O)c3)[C@H]12` (stereo partly specified): the T/C (dose: 7.25 mg/kg/injection, schedule: Q01DX005 (ip), vehicle: saline + alcohol) was 106 % of control; the T/C (dose: 14.5 mg/kg/injection, schedule: Q01DX005 (ip), vehicle: saline + alcohol) was 107 % of control; the T/C (dose: 29.0 mg/kg/injection, schedule: Q01DX005 (ip), vehicle: saline + alcohol) was 109 % of control; the T/C (dose: 58.0 mg/kg/injection, schedule: Q01DX005 (ip), vehicle: saline + alcohol) is 113 % of control.
For the compound `CCCCCC(CN(C)C)C(/C=C/c1ccc(Cl)c(Cl)c1)=N\O` (stereo unspecified), the T/C was 116 % of control under setting [7] and 105 % of control under setting [8].
`CN(C)c1ccc(C=NCCCN=Cc2ccc(N(C)C)cc2)cc1`: the T/C under setting [5] is 104 % of control.
For `CCC1CCC(=O)NC1=O` (stereo unspecified), the T/C runs as follows: (dose: 60.0 mg/kg/injection, schedule: Q01DX005 (ip), vehicle: saline with Tween-80) 103 % of control; (dose: 120.0 mg/kg/injection, schedule: Q01DX005 (ip), vehicle: saline with Tween-80) 103 % of control; (dose: 240.0 mg/kg/injection, schedule: Q01DX005 (ip), vehicle: saline with Tween-80) 98 % of control.
As for `CCN1CCCC(Nc2cc(C)nc(/N=C(/N)Nc3ccc(Cl)c(Cl)c3)n2)C1` (stereo unspecified), the T/C reads like this: (dose: 3.13 mg/kg/injection, schedule: Q01DX009 (ip), vehicle: water) 93 % of control; (dose: 6.25 mg/kg/injection, schedule: Q01DX009 (ip), vehicle: water) 97 % of control; (dose: 12.5 mg/kg/injection, schedule: Q01DX009 (ip), vehicle: water) 107 % of control and 97 % of control; (dose: 25.0 mg/kg/injection, schedule: Q01DX009 (ip), vehicle: water) 101 % of control.
In the case of `CC1=C(C#N)C(=N)OC1(C)C1CC(=O)C=CC1=O` (stereo unspecified), the T/C (dose: 60.0 mg/kg/injection, schedule: Q01DX005 (ip), vehicle: suspension in saline) is 119 % of control.
`CC(N)(Cc1ccc(O)c(O)c1)C(=O)O` (stereo unspecified): the T/C reads like this: under setting [7], 99 % of control and 107 % of control and 110 % of control; under setting [8], 99 % of control and 102 % of control and 112 % of control; (dose: 200.0 mg/kg/injection, schedule: Q01DX009 (ip), vehicle: saline) 108 % of control and 96 % of control; (dose: 400.0 mg/kg/injection, schedule: Q01DX009 (ip), vehicle: saline) 105 % of control and 109 % of control and 115 % of control; (dose: 600.0 mg/kg/injection, schedule: Q01DX009 (ip), vehicle: saline) 114 % of control and 121 % of control and 94 % of control.
Turning to `NC(=O)NC1CC1c1ccc(Cl)c(Cl)c1` (stereo unspecified), the T/C was 103 % of control (dose: 50.0 mg/kg/injection, schedule: Q01DX005 (ip), vehicle: Klucel (hydroxypropylcellulose) (HPC)); 99 % of control (dose: 100.0 mg/kg/injection, schedule: Q01DX005 (ip), vehicle: Klucel (hydroxypropylcellulose) (HPC)); 114 % of control (dose: 200.0 mg/kg/injection, schedule: Q01DX005 (ip), vehicle: Klucel (hydroxypropylcellulose) (HPC)).
For the compound `NC(=O)c1cnc(N)nc1`, the T/C under setting [1] was 93 % of control; the T/C under setting [2] was 91 % of control; the T/C under setting [3] was 98 % of control; the T/C under setting [4] was 94 % of control; the T/C under setting [5] was 98 % of control; the T/C under setting [6] is 106 % of control.
Turning to `CCOC(=O)/C=C1/CC(C#N)(C(=O)NN)CO1` (stereo unspecified), the T/C (dose: 100.0 mg/kg/injection, schedule: Q01DX001 (ip), vehicle: Klucel (hydroxypropylcellulose) (HPC)) was 102 % of control; the T/C (dose: 200.0 mg/kg/injection, schedule: Q01DX001 (ip), vehicle: Klucel (hydroxypropylcellulose) (HPC)) is 110 % of control; the T/C (dose: 400.0 mg/kg/injection, schedule: Q01DX001 (ip), vehicle: Klucel (hydroxypropylcellulose) (HPC)) was 100 % of control.
Regarding `CC1CCC2(C)CCC3(C)C(=CCC4C5(C)CCC(Oc6ccc(O)cc6)C(C)(C)C5CCC43C)C2C1C(=O)O` (stereo unspecified), the T/C (dose: 0.5 mg/kg/injection, schedule: Q01DX005 (ip), vehicle: DMSO) is 101 % of control; the T/C (dose: 1.0 mg/kg/injection, schedule: Q01DX005 (ip), vehicle: DMSO) is 100 % of control; the T/C (dose: 2.0 mg/kg/injection, schedule: Q01DX005 (ip), vehicle: DMSO) is 101 % of control; the T/C (dose: 4.0 mg/kg/injection, schedule: Q01DX005 (ip), vehicle: DMSO) was 100 % of control.
For the compound `Cc1ccn2ncnc2c1`, the T/C under setting [4] was 101 % of control, the T/C under setting [5] was 102 % of control and the T/C under setting [6] is 91 % of control.
In the case of `c1ccc2c(NCCCCNc3c4ccccc4nc4ccccc34)c3ccccc3nc2c1`, the T/C was 101 % of control (dose: 0.62 mg/kg/injection, schedule: Q## X009 (ip), vehicle: lactic acid); 102 % of control (dose: 1.25 mg/kg/injection, schedule: Q## X009 (ip), vehicle: lactic acid); 104 % of control (dose: 2.5 mg/kg/injection, schedule: Q## X009 (ip), vehicle: lactic acid); 104 % of control (dose: 5.0 mg/kg/injection, schedule: Q## X009 (ip), vehicle: lactic acid); 110 % of control (dose: 10.0 mg/kg/injection, schedule: Q## X009 (ip), vehicle: lactic acid).
